Results: patent US9902736B2, “1-oxo/acylation-14-acylated oridonin derivative, preparation method therefor and application thereof” (HANGZHOU BENSHENG PHARMACEUTICAL CO., LTD., priority 2012, dated 2018)
Values after ≈ are worked out from the molar mass of the structure shown.

Tests used:
SK-OV-3 = experiment: Solid tumor cell growth inhibition, MTT, 72 h; assay type: cell-based; conditions: Homo sapiens, SK-OV-3, 72 h, MTT; for IC50: read-out: IC50 SK-OV-3; for IC90: read-out: IC90 SK-OV-3
Summary of the method: (§1)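 Plating density was 6000 cells per well, in DMEM High Glucose medium with 10% serum, kept at 37° C in 5% CO2 throughout.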

RKO = experiment: Solid tumor cell growth inhibition, MTT, 72 h; assay type: cell-based; conditions: Homo sapiens
Summary of the method: as §1

A549 = experiment: Solid tumor cell growth inhibition, MTT, 72 h; assay type: cell-based; conditions: Homo sapiens
Summary of the method: as §1

U87-MG = experiment: Solid tumor cell growth inhibition, MTT, 72 h; assay type: cell-based; conditions: Homo sapiens, U-87 MG
Summary of the method: as §1

Becap-37 = experiment: Solid tumor cell growth inhibition, MTT, 72 h; assay type: cell-based; conditions: Homo sapiens
Summary of the method: as §1

CaEs-17 = experiment: Solid tumor cell growth inhibition, MTT, 72 h; assay type: cell-based; conditions: Homo sapiens, CaEs17
Summary of the method: as §1

PANC-1 = experiment: Solid tumor cell growth inhibition, MTT, 72 h; assay type: cell-based; conditions: Homo sapiens
Summary of the method: as §1

PC-3 = experiment: Solid tumor cell growth inhibition, MTT, 72 h; assay type: cell-based; conditions: Homo sapiens
Summary of the method: as §1

Hep G2 = experiment: Solid tumor cell growth inhibition, MTT, 72 h; assay type: cell-based; conditions: Homo sapiens, HepG2
Summary of the method: as §1

MG-63 = experiment: Solid tumor cell growth inhibition, MTT, 72 h; assay type: cell-based; conditions: Homo sapiens
Summary of the method: as §1

Jurkat = experiment: Leukemia cell growth inhibition, MTT, 72 h; assay type: cell-based, human; conditions: Homo sapiens, Jurkat; 72 h, MTT
Summary of the method: (§2)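 Leukemia lines used were drug-resistant CML K562/ADR, ALL lines H9 and Jurkat, and AML-M2 Kasumi-1. Each was plated at 6000 cells per well and exposed to varying compound concentrations from day two for 72 hours, then assayed by MTT.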

NB4 = experiment: Leukemia cell growth inhibition, MTT, 72 h; assay type: cell-based, human; conditions: Homo sapiens, NB-4; 72 h, MTT
Summary of the method: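 MTT read-out of viable cell concentration after 72 hours of exposure at 37° C under 5% CO2. Compounds were dosed at several concentrations one day after plating 6000 cells per well.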

H9 = experiment: Leukemia cell growth inhibition, MTT, 72 h; assay type: cell-based, human; conditions: Homo sapiens, H9; 72 h, MTT
Summary of the method: as §2

Hela = experiment: Solid tumor cell growth inhibition, MTT, 72 h; assay type: cell-based, human; conditions: Homo sapiens, HeLa; 72 h, MTT
Summary of the method: as §1

MGC-803 = experiment: Solid tumor cell growth inhibition, MTT, 72 h; assay type: cell-based, human; conditions: Homo sapiens, MGC-803; 72 h, MTT
Summary of the method: as §1

CNE = experiment: Solid tumor cell growth inhibition, MTT, 72 h; assay type: cell-based, human; conditions: Homo sapiens, CNE; 72 h, MTT
Summary of the method: as §1

Hep-2 = experiment: Solid tumor cell growth inhibition, MTT, 72 h; assay type: cell-based, human; conditions: Homo sapiens, HEp-2; 72 h, MTT
Summary of the method: as §1

RPMI 8226 = experiment: Multiple myeloma cell growth inhibition, MTT, 72 h; assay type: cell-based; conditions: Homo sapiens
Summary of the method: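 Growth inhibition by MTT after 72 h drug exposure (37 °C, 5% CO2) over a concentration range of oridonin derivatives. RPMI 8226 cells plated at 6000 per well and dosed the following day.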

Kasumi-1 = experiment: Leukemia cell growth inhibition, MTT, 72 h; assay type: cell-based; conditions: Homo sapiens
Summary of the method: as §2

K562/ADR = experiment: Leukemia cell growth inhibition, MTT, 72 h; assay type: cell-based; conditions: Homo sapiens
Summary of the method: as §2

Row | SMILES | IC50 (SK-OV-3) | IC90 (SK-OV-3) | IC50 (RKO) | IC90 (RKO) | IC50 (A549) | IC90 (A549) | IC50 (U87-MG) | IC90 (U87-MG) | IC50 (Becap-37) | IC90 (Becap-37) | IC50 (CaEs-17) | IC90 (CaEs-17) | IC50 (PANC-1) | IC90 (PANC-1) | IC50 (PC-3) | IC90 (PC-3) | IC50 (Hep G2) | IC90 (Hep G2) | IC50 (MG-63) | IC90 (MG-63) | also measured
1 | C=C1C(=O)[C@]23[C@H](O)[C@H]1CC[C@H]2[C@@]12CO[C@]3(O)[C@@H](O)[C@@H]1C(C)(C)CC[C@@H]2O [OR, Oridonin] | 7.94 µg/mL (≈ 21.8 µM) | 13 µg/mL (≈ 35.6 µM) | 2.24 µg/mL (≈ 6.15 µM) | 3.96 µg/mL (≈ 10.9 µM) | 13.7 µg/mL (≈ 37.6 µM) | > 16 µg/mL | 2.58 µg/mL (≈ 7.08 µM) | 6.67 µg/mL (≈ 18.3 µM) | 5.06 µg/mL (≈ 13.9 µM) | 12.9 µg/mL (≈ 35.5 µM) | 3.31 µg/mL (≈ 9.08 µM) | 6.86 µg/mL (≈ 18.8 µM) | 9.1 µg/mL (≈ 25 µM) | 16 µg/mL (≈ 43.9 µM) | 7.94 µg/mL (≈ 21.8 µM) | 13 µg/mL (≈ 35.6 µM) | 6.77 µg/mL (≈ 18.6 µM) | 13.1 µg/mL (≈ 36 µM) | 1.86 µg/mL (≈ 5.1 µM) | 5.6 µg/mL (≈ 15.4 µM) | IC50 (Jurkat): 1.89 µg/mL (≈ 5.19 µM); IC90 (Jurkat): 3.95 µg/mL (≈ 10.8 µM); IC50 (NB4): 0.78 µg/mL (≈ 2.14 µM); IC90 (NB4): 2.4 µg/mL (≈ 6.59 µM); IC50 (H9): 1.36 µg/mL (≈ 3.73 µM); IC90 (H9): 3.57 µg/mL (≈ 9.8 µM); IC50 (Hela): 5.22 µg/mL (≈ 14.3 µM); IC90 (Hela): 10.7 µg/mL (≈ 29.4 µM); IC50 (MGC-803): 5.88 µg/mL (≈ 16.1 µM); IC90 (MGC-803): 7.95 µg/mL (≈ 21.8 µM); IC50 (CNE): 5.45 µg/mL (≈ 15 µM); IC90 (CNE): 10.5 µg/mL (≈ 28.9 µM); IC50 (Hep-2): 4.66 µg/mL (≈ 12.8 µM); IC90 (Hep-2): 7.99 µg/mL (≈ 21.9 µM); IC50 (RPMI 8226): 2.73 µg/mL (≈ 7.49 µM); IC90 (RPMI 8226): 5.68 µg/mL (≈ 15.6 µM); IC50 (Kasumi-1): 1.32 µg/mL (≈ 3.62 µM); IC90 (Kasumi-1): 3.72 µg/mL (≈ 10.2 µM); IC50 (K562/ADR): 1.32 µg/mL (≈ 3.62 µM); IC90 (K562/ADR): 3.46 µg/mL (≈ 9.49 µM)
2 | C=C1C(=O)[C@]23[C@H](OC(=O)c4ccccc4)[C@H]1CC[C@H]2[C@@]12CO[C@@]3(O)[C@@H](O)[C@@H]1C(C)(C)CCC2=O [BS-OR-001] | 1.67 µg/mL (≈ 3.58 µM) | 3.8 µg/mL (≈ 8.15 µM) | 0.46 µg/mL (≈ 0.986 µM) | 0.94 µg/mL (≈ 2.01 µM) | 2.6 µg/mL (≈ 5.57 µM) | 6.08 µg/mL (≈ 13 µM) | 0.8 µg/mL (≈ 1.71 µM) | 2.36 µg/mL (≈ 5.06 µM) | 1.12 µg/mL (≈ 2.4 µM) | 3.79 µg/mL (≈ 8.12 µM) | 1.21 µg/mL (≈ 2.59 µM) | 5.47 µg/mL (≈ 11.7 µM) | 1.79 µg/mL (≈ 3.84 µM) | 6.42 µg/mL (≈ 13.8 µM) | 1.67 µg/mL (≈ 3.58 µM) | 3.8 µg/mL (≈ 8.15 µM) | 0.98 µg/mL (≈ 2.1 µM) | 10.6 µg/mL (≈ 22.7 µM) | 0.47 µg/mL (≈ 1.01 µM) | 0.99 µg/mL (≈ 2.12 µM) | IC50 (Jurkat): 0.68 µg/mL (≈ 1.46 µM); IC90 (Jurkat): 2.63 µg/mL (≈ 5.64 µM); IC50 (NB4): 0.14 µg/mL (≈ 0.3 µM); IC90 (NB4): 0.47 µg/mL (≈ 1.01 µM); IC50 (H9): 0.45 µg/mL (≈ 0.965 µM); IC90 (H9): 0.95 µg/mL (≈ 2.04 µM); IC50 (Hela): 1.65 µg/mL (≈ 3.54 µM); IC90 (Hela): 4.67 µg/mL (≈ 10 µM); IC50 (MGC-803): 0.88 µg/mL (≈ 1.89 µM); IC90 (MGC-803): 11 µg/mL (≈ 23.5 µM); IC50 (CNE): 1.41 µg/mL (≈ 3.02 µM); IC90 (CNE): 5.45 µg/mL (≈ 11.7 µM); IC50 (Hep-2): 1.64 µg/mL (≈ 3.52 µM); IC90 (Hep-2): 7.7 µg/mL (≈ 16.5 µM); IC50 (RPMI 8226): 0.41 µg/mL (≈ 0.879 µM); IC90 (RPMI 8226): 1.89 µg/mL (≈ 4.05 µM); IC50 (Kasumi-1): 0.72 µg/mL (≈ 1.54 µM); IC90 (Kasumi-1): 1.86 µg/mL (≈ 3.99 µM); IC50 (K562/ADR): 0.6 µg/mL (≈ 1.29 µM); IC90 (K562/ADR): 1.73 µg/mL (≈ 3.71 µM)
